According to patent publication US11191742B2, “Methods of treating neurodegenerative disorders in a particular population” (ALZHEON, INC., priority 2015, dated 2021):

Columns and labels:
Assay type in all cases: in vivo, human
[1] = system: APOE4+ patients with Alzheimer's disease; test: Phase 3 trials of tramiprosate, CDR-SB score, all APOE4+ patients; conditions: for CDR-SB Score Change over Standard of Care (Δ improvement vs control): All APOE4+ patients ≤85 years
Description: (§1) The delta value in all of these tables is calculated by measuring the increase in score over baseline for each patient in a treatment group and obtaining the mean increase for such group and then subtracting that value from the mean increase in score over baseline for all patients in the placebo group. Thus, a positive delta value in these tables represents an improvement over the placebo group. Phase 3 human clinical trials of tramiprosate to treat Alzheimer's disease at doses of 100 mg BID and 150 mg BID for up to 78 weeks were run in both North America and Europe (1691 total patients enrolled). Placebos in both trials were treatment with donepezil either alone or in combination with memantine. ADAS-Cog scores and CDR-SB scores were obtained every 13 weeks for patients that remained in the trial. The patients were genotyped for APOE4 and the severity of their disease was measured using MMSE prior to the beginning of treatment. The data from both trials were merged for certain statistical analyses. […] We then performed additional subgroup analysis, subgrouping by APOE4 genotype/allele status (APOE4 heterozygous or APOE4 homozygous) and by disease severity (mild vs moderate) to determine if the number of c alleles and/or the severity of disease predicted a better outcome of tramiprosate therapy. […] In Table 2, *control treatment is donepezil either alone or in combination with memantine. Positive delta values quantitate the amount by which average increase in CDR-SB Score points above baseline for the control group exceeded the average increase in CDR-SB Score points above baseline for the treatment group.

[2] = system: APOE4/4 homozygous patients with Alzheimer's disease; test: Phase 3 trials of tramiprosate, ADAS-Cog and CDR-SB by baseline MMSE, APOE4/4 homozygous subjects; conditions: 150 mg BID
Description: Analysis of the efficacy or tramiprosate in APOE4/4 homozygous subjects based on baseline MMSE was performed to evaluate for differences in drug response between Mild and Moderate patients. […] analyses were performed on the following baseline MMSE categories: Mild-to-Moderate AD population (baseline MMSE 16-26 inclusive), Mild AD population (baseline MMSE 20-26 inclusive), and the More Mild AD population (baseline MMSE 22-26 inclusive). The data is shown below in FIG. 7, panels A and B.

[3] = Safety in Phase 3 tramiprosate studies
Description: In some embodiments, the subject is determined to have moderate AD when the subject has a baseline MMSE score in the range of 16-19. In some embodiments, the subject is determined to have mild AD when the subject has a baseline MMSE score in the range of 20-26. […] Safety data from Phase 3 tramiprosate studies support bridging to the ALZ-801 safety database, based on bioequivalence. The disclosures in provisional application Ser. No. 62/216,404, filed Sep. 10, 2015, 62/290,287, filed Feb. 2, 2016, and 62/365,809, filed Jul. 22, 2016 are incorporated herein for all purposes and particularly regarding dosages and formulations.

[4] = system: APOE4 heterozygous patients with Alzheimer's disease; test: Phase 3 trials of tramiprosate, ADAS-Cog score, heterozygous APOE4+ patients; conditions: Heterozygous APOE4+ patients ≤85 years
Description: as §1, with “Table 3,” for “Table 2,”, “in ADAS-Cog” for “in CDR-SB”

[5] = Mild (MMSE 20-26), 100 mg BID, 52 weeks
[6] = Mild (MMSE 20-26), 100 mg BID, 65 weeks
[7] = Mild (MMSE 20-26), 100 mg BID, 78 weeks
[8] = Mild (MMSE 20-26), 150 mg BID, 52 weeks
[9] = Mild (MMSE 20-26), 150 mg BID, 65 weeks
[10] = Mild (MMSE 20-26), 150 mg BID, 78 weeks
[11] = Mild-to-Moderate (MMSE 16-26), 100 mg BID, 52 weeks
[12] = Mild-to-Moderate (MMSE 16-26), 100 mg BID, 65 weeks
[13] = Mild-to-Moderate (MMSE 16-26), 100 mg BID, 78 weeks
[14] = Mild-to-Moderate (MMSE 16-26), 150 mg BID, 52 weeks
[15] = Mild-to-Moderate (MMSE 16-26), 150 mg BID, 65 weeks
[16] = Mild-to-Moderate (MMSE 16-26), 150 mg BID, 78 weeks
[17] = Moderate (MMSE 16-19), 100 mg BID, 52 weeks
[18] = Moderate (MMSE 16-19), 100 mg BID, 65 weeks
[19] = Moderate (MMSE 16-19), 100 mg BID, 78 weeks
[20] = Moderate (MMSE 16-19), 150 mg BID, 52 weeks
[21] = Moderate (MMSE 16-19), 150 mg BID, 65 weeks
[22] = Moderate (MMSE 16-19), 150 mg BID, 78 weeks

NCCCS(=O)(=O)O [Tramiprosate, 3-amino-1-propanesulfonic acid]
Effect on CDR-SB compared with the placebo ([1]; APOE4+ subgroup, both 100 mg and 150 mg treatment groups): statistically significant effect
CDR-SB Score Change over Standard of Care (Δ improvement vs control) [1, 5]: 0.14 points
CDR-SB Score Change over Standard of Care (Δ improvement vs control) [1, 6]: 0.34 points
CDR-SB Score Change over Standard of Care (Δ improvement vs control) [1, 7]: 0.35 points
CDR-SB Score Change over Standard of Care (Δ improvement vs control) [1, 8]: 0.16 points
CDR-SB Score Change over Standard of Care (Δ improvement vs control) [1, 9]: 0.2 points
CDR-SB Score Change over Standard of Care (Δ improvement vs control) [1, 10]: 0.18 points
CDR-SB Score Change over Standard of Care (Δ improvement vs control) [1, 11]: 0.26 points
CDR-SB Score Change over Standard of Care (Δ improvement vs control) [1, 12]: 0.5 points
CDR-SB Score Change over Standard of Care (Δ improvement vs control) [1, 13]: 0.55 points
CDR-SB Score Change over Standard of Care (Δ improvement vs control) [1, 14]: 0.44 points
CDR-SB Score Change over Standard of Care (Δ improvement vs control) [1, 15]: 0.5 points
CDR-SB Score Change over Standard of Care (Δ improvement vs control) [1, 16]: 0.6 points
CDR-SB Score Change over Standard of Care (Δ improvement vs control) [1, 17]: 0.56 points
CDR-SB Score Change over Standard of Care (Δ improvement vs control) [1, 18]: 0.83 points
CDR-SB Score Change over Standard of Care (Δ improvement vs control) [1, 19]: 0.98 points
CDR-SB Score Change over Standard of Care (Δ improvement vs control) [1, 20]: 1.00 points
CDR-SB Score Change over Standard of Care (Δ improvement vs control) [1, 21]: 1.12 points
CDR-SB Score Change over Standard of Care (Δ improvement vs control) [1, 22]: 1.53 points
Improvement compared with patients with lower MMSE at baseline ([2]; Mild AD (baseline MMSE ≥20) or More Mild AD (baseline MMSE ≥22)): higher improvement
Efficacy and cognitive benefit by baseline MMSE ([2]; baseline MMSE ≥22 (More Mild), 78 weeks): highest efficacy and a sustained cognitive benefit
Most common adverse event [3]: nausea
Safety profile [3]: favorable safety profile
ADAS-Cog Score Change over Standard of Care (Δ improvement vs control) [4, 5]: 0.9 points
ADAS-Cog Score Change over Standard of Care (Δ improvement vs control) [4, 6]: −0.3 points
ADAS-Cog Score Change over Standard of Care (Δ improvement vs control) [4, 7]: 0.8 points
ADAS-Cog Score Change over Standard of Care (Δ improvement vs control) [4, 8]: 0.1 points
ADAS-Cog Score Change over Standard of Care (Δ improvement vs control) [4, 9]: −0.6 points
ADAS-Cog Score Change over Standard of Care (Δ improvement vs control) [4, 10]: −0.5 points
ADAS-Cog Score Change over Standard of Care (Δ improvement vs control) [4, 11]: 2.0 points
ADAS-Cog Score Change over Standard of Care (Δ improvement vs control) [4, 12]: 0.8 points
ADAS-Cog Score Change over Standard of Care (Δ improvement vs control) [4, 13]: 1.1 points
ADAS-Cog Score Change over Standard of Care (Δ improvement vs control) [4, 14]: 0.5 points
ADAS-Cog Score Change over Standard of Care (Δ improvement vs control) [4, 15]: 0.0 points
ADAS-Cog Score Change over Standard of Care (Δ improvement vs control) [4, 16]: −0.4 points
ADAS-Cog Score Change over Standard of Care (Δ improvement vs control) [4, 17]: 4.4 points
ADAS-Cog Score Change over Standard of Care (Δ improvement vs control) [4, 18]: 3.4 points
ADAS-Cog Score Change over Standard of Care (Δ improvement vs control) [4, 19]: 2 points
ADAS-Cog Score Change over Standard of Care (Δ improvement vs control) [4, 20]: 1.5 points
ADAS-Cog Score Change over Standard of Care (Δ improvement vs control) [4, 21]: 1.4 points
ADAS-Cog Score Change over Standard of Care (Δ improvement vs control) [4, 22]: 0 points
